Like-named read-outs stand apart in the source and are kept apart here.
Key:
Type in all cases: cell-based, Escherichia coli
[1] = test system: EKO-35 araC::emrKY Pore; experiment: MIC susceptibility profiling, porinated efflux platform; conditions: for Fold changes of MICs: EKO-35 araC::emrKY Pore compared to EKO-35-Pore; for MIC: Escherichia coli, read-out: Minimum inhibitory concentration
Outline: (§1)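 MIC values come from background-corrected OD600 readings (pre-incubation OD subtracted) after 18 h at 37 °C and 900 rpm in MHB II. Compounds were tested in duplicate as 2-fold dilutions. The inoculum came from 18 h LB cultures adjusted to OD600 ~1.0 and diluted 1/2000, and the pore-bearing strains were vancomycin-checked beforehand.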

[2] = test system: EKO-35 araC::acrEF Pore; experiment: as above; conditions: for Fold changes of MICs: EKO-35 araC::acrEF Pore compared to EKO-35-Pore; for MIC: Escherichia coli, read-out: Minimum inhibitory concentration, EKO-35 araC::acrEF Pore
Outline: as §1

[3] = test system: EKO-35 araC::mdtEF Pore; experiment: as above; conditions: for Fold changes of MICs: EKO-35 araC::mdtEF Pore compared to EKO-35-Pore; for MIC: Escherichia coli, read-out: Minimum inhibitory concentration, EKO-35 araC::mdtEF Pore
Outline: as §1

[4] = test system: EKO-35 araC::macAB Pore; experiment: as above; conditions: for Fold changes of MICs: EKO-35 araC::macAB Pore compared to EKO-35-Pore; for MIC: Escherichia coli, read-out: Minimum inhibitory concentration
Outline: as §1

[5] = test system: wild-type E. coli K-12 str. BW25113; experiment: microbe, parasite or virus in culture; conditions: technical duplicate; for MIC: Escherichia coli, BW25113
Outline: (§2)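 Strains are grown overnight in LB at 37 °C, adjusted to OD600 ~1.0 in PBS (pH 7.4) and diluted 1/2000 into MHB II. They are incubated with twofold compound dilutions for 18 h at 37 °C. MIC comes from background-subtracted OD600.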

[6] = test system: E. coli ΔtolC; experiment: microbe, parasite or virus in culture; conditions: for MIC: Escherichia coli, 18 h, read-out: Minimum Inhibitory Concentration, ΔtolC; for Minimum inhibitory concentration (MIC), ΔtolC: Table 10, without pore
Outline: as §2

[7] = test system: E. coli EKO-35; experiment: microbe, parasite or virus in culture; conditions: for Fold change of MICs: EKO-35 compared to EKO-35 (reference); for MIC: Escherichia coli, EKO35
Outline: as §2

[8] = test system: EKO-35 araC::emrKY; experiment: MIC susceptibility profiling, efflux platform; conditions: for Fold change of MICs: EKO-35 araC::emrKY compared to EKO-35; for MIC: Escherichia coli, read-out: Minimum Inhibitory Concentration, EKO-35 araC::emrKY
Outline: as §2

[9] = test system: EKO-35 araC::acrEF; experiment: MIC susceptibility profiling, efflux platform; conditions: for Fold change of MICs: EKO-35 araC::acrEF compared to EKO-35; for MIC: Escherichia coli, read-out: Minimum Inhibitory Concentration, EKO-35 araC::acrEF
Outline: as §2

[10] = test system: EKO-35 araC::mdtEF; experiment: MIC susceptibility profiling, efflux platform; conditions: for Fold change of MICs: EKO-35 araC::mdtEF compared to EKO-35; for MIC: Escherichia coli, read-out: Minimum Inhibitory Concentration, EKO-35 araC::mdtEF
Outline: as §2

[11] = test system: EKO-35 araC::acrBD408A; experiment: MIC susceptibility profiling, efflux platform; conditions: for Fold change of MICs: EKO-35 araC::acrBD408A compared to EKO-35; for MIC: Escherichia coli, read-out: Minimum Inhibitory Concentration, EKO-35 araC::acrBD408A
Outline: as §2

[12] = test system: EKO-35 araC::mexCD (MexCD from P. aeruginosa); experiment: MIC susceptibility profiling, efflux platform; conditions: for Fold change of MICs: EKO-35 araC::mexCD compared to EKO-35; for MIC: read-out: Minimum Inhibitory Concentration, EKO-35 araC::mexCD
Outline: as §2

[13] = test system: EKO-35 araC::acrB; experiment: MIC susceptibility profiling, efflux platform; conditions: for Fold change of MICs: EKO-35 araC::acrB compared to EKO-35; for MIC: Escherichia coli, read-out: Minimum Inhibitory Concentration, EKO-35 araC::acrB
Outline: as §2

[14] = test system: EKO-35 araC::macAB; experiment: MIC susceptibility profiling, efflux platform; conditions: for Fold change of MICs: EKO-35 araC::macAB compared to EKO-35; for MIC: Escherichia coli, read-out: Minimum Inhibitory Concentration, EKO-35 araC::macAB
Outline: as §2

[15] = test system: EKO-35 araC::acrD; experiment: MIC susceptibility profiling, efflux platform; conditions: for Fold change of MICs: EKO-35 araC::acrD compared to EKO-35; for MIC: Escherichia coli, read-out: Minimum Inhibitory Concentration, EKO-35 araC::acrD
Outline: as §2

[16] = test system: EKO-35 araC::mdtBC; experiment: MIC susceptibility profiling, efflux platform; conditions: for Fold change of MICs: EKO-35 araC::mdtBC compared to EKO-35; for MIC: Escherichia coli, read-out: Minimum Inhibitory Concentration, EKO-35 araC::mdtBC
Outline: as §2

[17] = test system: EKO-35 araC::emrAB; experiment: MIC susceptibility profiling, efflux platform; conditions: for Fold change of MICs: EKO-35 araC::emrAB compared to EKO-35; for MIC: Escherichia coli, read-out: Minimum Inhibitory Concentration, EKO-35 araC::emrAB
Outline: as §2

[18] = test system: ΔtolC-Pore; experiment: microbe, parasite or virus in culture; conditions: for MIC: Escherichia coli, 18 h, read-out: Minimum inhibitory concentration, ΔtolC-Pore; for Minimum inhibitory concentration (MIC), Pore ΔtolC: Table 10, with pore
Outline: as §1

[19] = test system: wild-type (WT) K-12-Pore; experiment: microbe, parasite or virus in culture; conditions: technical duplicate; for MIC: Escherichia coli
Outline: as §1

[20] = Table 14A, porinated, technical duplicate
[21] = EKO-35 araC::macAB Pore, technical duplicate
[22] = Table 10, without pore, read-out: Minimum inhibitory concentration (MIC), K-12
[23] = Table 13A, non-porinated, read-out: Minimum Inhibitory Concentration, K-12
[24] = Table 10, without pore, technical duplicate, read-out: Minimum inhibitory concentration (MIC), EKO-35
[25] = Table 13A, non-porinated, technical duplicate, read-out: Minimum Inhibitory Concentration, EKO-35
[26] = Table 13B, non-porinated, technical duplicate
[27] = Table 13A, non-porinated, technical duplicate
[28] = Table 10, with pore, read-out: Minimum inhibitory concentration (MIC), Pore K-12
[29] = Table 14A, porinated, read-out: Minimum inhibitory concentration, K-12 (WT)-Pore
[30] = EKO-35 araC::emrKY Pore, technical duplicate

Nc1ccc(S(=O)(=O)Nc2nccs2)cc1 [Sulfathiazole]
5 µg/mL: MIC [5, 22] | MIC [5, 23] | MIC [6] | Minimum inhibitory concentration (MIC), ΔtolC ([6]; technical duplicate) | MIC [19, 28] | MIC [19, 29]
2.5 µg/mL: MIC [18] | Minimum inhibitory concentration (MIC), Pore ΔtolC ([18]; technical duplicate)
2 fold: Fold changes of MICs [3] | Fold changes of MICs [4]
1 fold: Fold changes of MICs [1] | Fold changes of MICs [2] | Fold change of MICs [7] | Fold change of MICs [8] | Fold change of MICs [9] | Fold change of MICs [10] | Fold change of MICs [11] | Fold change of MICs [12] | Fold change of MICs [13] | Fold change of MICs [14] | Fold change of MICs [15] | Fold change of MICs [16] | Fold change of MICs [17]
10 µg/mL: MIC [3, 20] | MIC [4, 21] | MIC [7, 24] | MIC [7, 25] | MIC [8, 26] | MIC [9, 27] | MIC [10, 27] | MIC [11, 26] | MIC [12, 26] | MIC [13, 27] | MIC [15, 27] | MIC [16, 26] | MIC [17, 26]

O=[N+]([O-])c1ccc2c(c1)C(=NO)c1cc([N+](=O)[O-])ccc1-2 [compound 11]
5 µg/mL: Minimum inhibitory concentration, EKO-35 araC::mdtEF Pore [3, 20]
1.25 µg/mL: Minimum Inhibitory Concentration, EKO-35 araC::mexCD [12, 26]
8 fold: Fold change of MICs [15]
64 fold: Fold changes of MICs [3]
0.625 µg/mL: Minimum Inhibitory Concentration, EKO-35 araC::acrD [15, 27]
1 fold: Fold changes of MICs [1] | Fold changes of MICs [4] | Fold change of MICs [7] | Fold change of MICs [8] | Fold change of MICs [11] | Fold change of MICs [14] | Fold change of MICs [16]
512 fold: Fold change of MICs [17]
0.078 µg/mL: Minimum inhibitory concentration [1, 30] | Minimum inhibitory concentration [4, 21] | Minimum inhibitory concentration (MIC), EKO-35 ([7]; Table 10, without pore, technical duplicate) | Minimum Inhibitory Concentration, EKO-35 [7, 27] | Minimum Inhibitory Concentration, EKO-35 araC::emrKY [8, 26] | Minimum Inhibitory Concentration, EKO-35 araC::acrBD408A [11, 26] | Minimum Inhibitory Concentration, EKO-35 araC::macAB [14, 26] | Minimum Inhibitory Concentration, EKO-35 araC::mdtBC [16, 26]
80 µg/mL: Minimum inhibitory concentration, EKO-35 araC::acrEF Pore [2, 20] | Minimum inhibitory concentration (MIC), Pore K-12 ([19]; Table 10, with pore) | Minimum inhibitory concentration, K-12 (WT)-Pore ([19]; Table 14A, porinated)
320 µg/mL: Minimum inhibitory concentration (MIC), K-12 ([5]; Table 10, without pore) | Minimum Inhibitory Concentration, K-12 ([5]; Table 13A, non-porinated) | Minimum Inhibitory Concentration, EKO-35 araC::acrEF [9, 27] | Minimum Inhibitory Concentration, EKO-35 araC::acrB [13, 27]
susceptible: susceptibility of EKO-35 to the compound ([7]; synthetic efflux substrates of FIG. 12)
16 fold: Fold change of MICs [12]
40 µg/mL: Minimum Inhibitory Concentration, EKO-35 araC::emrAB [17, 26]
128 fold: Fold change of MICs [10]
10 µg/mL: Minimum Inhibitory Concentration, EKO-35 araC::mdtEF [10, 27]
0.156 µg/mL: Minimum inhibitory concentration (MIC), ΔtolC ([6]; technical duplicate) | Minimum Inhibitory Concentration, ΔtolC [6, 27] | Minimum inhibitory concentration (MIC), Pore ΔtolC ([18]; technical duplicate) | Minimum inhibitory concentration, ΔtolC-Pore [18, 20]
4096 fold: Fold change of MICs [9]

Cc1onc(-c2ccccc2)c1C(=O)N[C@@H]1C(=O)N2[C@@H]1SC(C)(C)[C@@H]2C(=O)O [oxacillin]
5 µg/mL: MIC [2, 20]
1.25 µg/mL: MIC [3, 20] | MIC [11, 26] | MIC [17, 26]
20 µg/mL: MIC [10, 27] | MIC [12, 26]
0.313 µg/mL: MIC [1, 30] | MIC [4, 21] | MIC [18] | Minimum inhibitory concentration (MIC), Pore ΔtolC ([18]; technical duplicate)
confirmed: efflux pump-mediated resistance vs EKO-35 ([15]; AcrD)
40 µg/mL: MIC [19, 28] | MIC [19, 29]
0.625 µg/mL: MIC [6] | Minimum inhibitory concentration (MIC), ΔtolC ([6]; technical duplicate) | MIC [7, 24] | MIC [7, 25] | MIC [8, 26] | MIC [14, 26] | MIC [16, 26]
160 µg/mL: MIC [5, 22] | MIC [5, 23] | MIC [9, 27] | MIC [13, 27] | MIC [15, 27]

[H]/N=C(/N)N[C@H]1[C@H](O)[C@@H](O)[C@H](O[C@@H]2O[C@@H](C)[C@](O)(C=O)[C@H]2O[C@@H]2O[C@@H](CO)[C@H](O)[C@@H](O)[C@@H]2NC)[C@@H](N/C(N)=N\[H])[C@@H]1O [Streptomycin]
1 fold: Fold changes of MICs [1] | Fold changes of MICs [2] | Fold changes of MICs [3] | Fold changes of MICs [4] | Fold change of MICs [7] | Fold change of MICs [8] | Fold change of MICs [9] | Fold change of MICs [11] | Fold change of MICs [12] | Fold change of MICs [14] | Fold change of MICs [17]
6.25 µg/mL: MIC [5, 22] | MIC [5, 23] | MIC [10, 27] | MIC [13, 27] | MIC [15, 27] | MIC [16, 26]
3.12 µg/mL: MIC [1, 30] | MIC [2, 20] | MIC [3, 20] | MIC [4, 21] | MIC [6] | MIC [7, 24] | MIC [7, 25] | MIC [8, 26] | MIC [9, 27] | MIC [11, 26] | MIC [12, 26] | MIC [14, 26] | MIC [17, 26]
1.563 µg/mL: Minimum inhibitory concentration (MIC), Pore ΔtolC ([18]; technical duplicate)
12.5 µg/mL: MIC [19, 28] | MIC [19, 29]
1.56 µg/mL: MIC [18]
3.125 µg/mL: Minimum inhibitory concentration (MIC), ΔtolC ([6]; technical duplicate)
2 fold: Fold change of MICs [10] | Fold change of MICs [13] | Fold change of MICs [15] | Fold change of MICs [16]
